The test system of test [1] is diaphysis and metaphysis tissues of rat femur. Nature of the test: Calcium level in bone tissues in a bone tissue culture system. The following applies: for Change of calcium levels in bone tissues (in words) / Calcium level in bone tissues, diaphysis part / Calcium level in bone tissues, metaphysis part / Change of calcium levels in bone tissues compared to the control group (in words): 48 h culture, β-cryptoxanthin 10^−9 M; for Calcium level in bone tissues, diaphysis part / Calcium level in bone tissues, metaphysis part: mean ± SD, 5 rats; for Change of calcium level in bone tissues (in words): higher concentration of 10^−5 M; for Change of calcium levels in bone tissues compared to the control group (in words): both diaphysis and metaphysis.
Experimental: Rats (Wistar male rats; 4 weeks old, body weight 85-90 g; purchased from Japan SLC Ltd., and fed with solid Oriental yeast (MF)) were sacrificed under mild ether anesthesia. Muscle tissues around femur were removed completely, divided into diaphysis (cortical bone) and metaphysis (cancellous bone) tissues of femur, and then the bone marrow cells were washed and removed in a cold 0.25 M sucrose solution. The bone tissue pieces were cultured in a Dulbecco's modified Eagle's culture medium (serum-free, containing 50 units/ml penicillin and 50 μg/ml spretomycin, supplemented with 45 mg/ml glucose), in an CO2 incubator aseptically for 48 hours at 37° C. […] Bone tissues were put into a culture dish (with a diameter of 35 mm, made of plastic) added with 2.0 ml of the above mentioned culture solution, and cultured. After being cultured, bone tissues were washed well in a cold 0.25 M sucrose solution, dried at 100° C. for 5 hours, and weighed. Dried bone tissues were put into a test tube (15 ml), to which 2.0 ml of concentrated nitric acid was added, and the resultant was heated and degraded at 100° C. for 16 hours. After degradation, solution amount was measured. A specific amount thereof was diluted with purified distilled water, and calcium was determined by colorimetry (kit for measuring calcium, Wako Pure Chemical Industries). Calcium levels in bone tissues are indicated as mg per 1 g of dried weight of cultured bone tissues. In the above experiment, bone tissues obtained from one rat were put in one culture dish, and 5 culture dishes were used for 5 rats. 5 dishes were used for each of the control, β-cryptoxanthin alone group, zinc alone group, and the β-cryptoxanthin and zinc-combined group. […] A critical value of less than 5% was determined as having a significant difference.
In order to investigate the effect on calcium levels in bone tissues when β-cryptoxanthin and zinc, or genistein and menaquinone-7 are supplied in the bone tissue culture system, femur diaphysis and metaphysis tissues were cultured for 48 hours in a culture solution, in the same manner as in Example 1, and the calcium level in bone tissues was measured, compared and evaluated.

The test system of test [2] is alkaline phosphatase in bone tissues (femur diaphysis and metaphysis). Nature of the test: Alkaline phosphatase activity in bone tissues in a bone tissue culture system. The following applies: 48 h culture, β-cryptoxanthin 10^−9 M, zinc 10^−6 M; for Alkaline phosphatase activity in bone tissues, diaphysis part / Alkaline phosphatase activity in bone tissues, metaphysis part: mean ± SD, 5 rats; for Change of alkaline phosphatase activity in bone tissues compared to the control group (in words): diaphysis and metaphysis. Format: cell-based, rat. Here is the method:
(§1) After degradation, solution amount was measured.
(§2) The expression level of alkaline phosphatase, which is the most important enzyme for promoting bone calcification, was examined. […] The resultant liquid was centrifuged. The supernatant, as an enzyme solution, was determined by a method of Walter and Schutt (in Method of Enzymatic Analysis, Vol. 1-2, p. 856, Academic Press, New York, 1965). Namely, this method was carried out as follows: p-nitrophenylphosphoric acid was used as a substrate; 0.05 ml of the enzyme solution was added to 2 ml of diethanolamine buffer (pH 9.8). After the incubation at 37° C. for 30 minutes, 10 ml of 0.05 N NaOH was added to the mixture.

Test [3] deals with diaphysis and metaphysis tissues of rat femur. The test is described as follows: DNA level in bone tissues in a bone tissue culture system. Format: cell-based. To be noted: 48 h culture, β-cryptoxanthin 10^−9 M, zinc 10^−6 M; for DNA level in bone tissues, diaphysis part / DNA level in bone tissues, metaphysis part: mean ± SD, 5 rats; for Change of DNA level in bone tissues compared to the control group (in words): diaphysis and metaphysis. Here is the method:
as §1
(§3) DNA level was determined as an index of cell count in bone tissues. […] After osmosis at 4° C. for 24 hours, the liquid mixture was centrifuged. The supernatant was taken as a sample and determined by a method of Ceriotti et al. (J. Biol. Chem., 241; 34-77, 1951). Namely, 1 ml of concentrated hydrochloric acid and 1 ml of 0.04% indole solution were added to 2 ml of the sample and then the resultant mixture was heated to 100° C. in boiling water. After quenching followed by an extraction with 4 ml of chloroform, the chloroform layer was taken to determine bone DNA level with a spectrophotometer (490 nm).

The test system of test [4] is femur diaphysis and metaphysis tissues. Nature of the test: Calcium level in bone tissues by oral administration. It counts as in vivo, rat. The following applies: rats, β-cryptoxanthin 5 μg/100 g body weight, zinc 0.1 mg/100 g body weight; for Change of calcium level in diaphysis (in words) / Change of calcium level in metaphysis (in words): oral 7 days; for Calcium level in bone tissues, diaphysis part / Calcium level in bone tissues, metaphysis part: oral once a day for 7 days, femur 24 h after final administration. As for the experimental part:
as §1
(§4) 24 hours after the final administration, femur was extracted, and the change in calcium levels in diaphysis and metaphysis tissues was examined with the method of Example 1.

Test [5] concerns alkaline phosphatase in bone tissues (femur diaphysis and metaphysis). Nature of the test: Alkaline phosphatase activity in bone tissues by oral administration. Format: in vivo, rat. To be noted: rats, β-cryptoxanthin 5 μg/100 g body weight, zinc 0.1 mg/100 g body weight; for Change of alkaline phosphatase activity in diaphysis and metaphysis tissues (in words): oral 7 days; for Alkaline phosphatase activity in bone tissues, diaphysis part / Alkaline phosphatase activity in bone tissues, metaphysis part: oral once a day for 7 days. Here is the method:
as §2, with “mixture. The absorbance (405 nm) was determined with a spectrophotometer to examine bone alkaline phosphatase activity of a therapeutic agent for bones and of a compound known to be effective for bones.” for “mixture.”
as §4
The change of alkaline phosphatase activity in diaphysis and metaphysis tissues which were extracted in the same manner as in Example 5 was examined with the method of Example 3.

Test [6] deals with femur diaphysis and metaphysis tissues. Nature of the test: DNA level in bone tissues by oral administration. Format: in vivo, rat. The following applies: rats, β-cryptoxanthin 5 μg/100 g body weight, zinc 0.1 mg/100 g body weight; for Change of DNA level in diaphysis (in words) / Change of DNA level in metaphysis tissues (in words): oral 7 days; for DNA level in bone tissues, diaphysis part / DNA level in bone tissues, metaphysis part: oral once a day for 7 days. Here is the method:
as §3, §4
The change of DNA level in diaphysis and metaphysis tissues which were extracted in the same manner as in Example 5 was examined with the method of Example 4.

For the next test, the system named is bone protein synthesis. To be noted: non-patent document 4; cited from earlier work.
In test [7] the test system is diaphysis and metaphysis tissues of a femur. To be noted: cited from earlier work.
[8] abbreviates: Example 2, zinc, genistein, menaquinone-7 each 10^−6 M.

The structures appear in SMILES notation.

On to `O=c1c(-c2ccc(O)cc2)coc2cc(O)cc(O)c12` [genistein, reference compound], for which, in test [1] (setting [8]), the “Change of calcium levels in bone tissues (in words)” value is listed as “did not increase significantly”; the “Calcium level in bone tissues, diaphysis part” value (“Calcium level … diaphysis part” below) is listed as 211.0 ± 7.93 mg/g bone dry weight; the “Calcium level in bone tissues, metaphysis part” value (“Calcium level … metaphysis part” below) turned out to be 189.3 ± 6.40 mg/g bone dry weight. In addition, in test [1], the “Change of calcium level in bone tissues (in words)” value is “increasing significantly”.
In the case of `CC(C)=CCC/C(C)=C/CC/C(C)=C/CC/C(C)=C/CC/C(C)=C/CC/C(C)=C/CC/C(C)=C/CC1=C(C)C(=O)c2ccccc2C1=O` [menaquinone-7, reference compound], in test [1] (setting [8]), the “Change of calcium levels in bone tissues (in words)” value is listed as “did not increase significantly”; the “Calcium level … diaphysis part” value was found to be 219.8 ± 4.20 mg/g bone dry weight; the “Calcium level … metaphysis part” value is listed as 184.9 ± 2.70 mg/g bone dry weight. The “Change of calcium level in bone tissues (in words)” value in test [1] is given as “increasing significantly”.
Regarding `O=S(=O)([O-])[O-].[Zn+2]` [zinc, zinc sulfate], in test [2], the “Alkaline phosphatase activity in bone tissues, diaphysis part” value is recorded as 1.019 ± 0.061 μmol/min/mg protein; the “Alkaline phosphatase activity in bone tissues, metaphysis part” value stood at 1.190 ± 0.079 μmol/min/mg protein; the “Change of alkaline phosphatase activity in bone tissues compared to the control group (in words)” value is “did not change significantly”. In test [3], the “DNA level in bone tissues, diaphysis part” value (“DNA level … diaphysis part” for short) is 1.471 ± 0.052 mg/g bone wet weight; the “DNA level in bone tissues, metaphysis part” value (“DNA level … metaphysis part” for short) was determined as 3.025 ± 0.271 mg/g bone wet weight; the “Change of DNA level in bone tissues compared to the control group (in words)” value is “did not change significantly”. Further, in test [4], the “Change of calcium level in diaphysis (in words)” value was “did not induce a significant change”; the “Change of calcium level in metaphysis (in words)” value was “did not induce a significant change”; the “Calcium level … diaphysis part” value is listed as 227.9 ± 4.3 mg/g dry mass; the “Calcium level … metaphysis part” value amounted to 178.6 ± 4.0 mg/g dry mass. In addition, in test [5], the “Change of alkaline phosphatase activity in diaphysis and metaphysis tissues (in words)” value was “did not induce a significant change”; the “Alkaline phosphatase activity in bone tissues, diaphysis part” value came out at 1.725 ± 0.038 μmol/min/mg protein; the “Alkaline phosphatase activity in bone tissues, metaphysis part” value turned out to be 1.170 ± 0.033 μmol/min/mg protein. Further, in test [6], the “Change of DNA level in diaphysis (in words)” value was “did not induce a significant change”; the “Change of DNA level in metaphysis tissues (in words)” value is recorded as “did not induce a significant change”; the “DNA level … diaphysis part” value is 1.805 ± 0.154 mg/g bone wet weight; the “DNA level … metaphysis part” value is reported as 3.278 ± 0.103 mg/g bone wet weight. Moreover, the “Concentration at which synthesis of bone protein is promoted” value in the test on bone protein synthesis was ≥ 10^−4 M. Further, in test [1] (Example 1, zinc 10^−6 M), the “Calcium level … diaphysis part” value was determined as 215.5 ± 2.01 mg/g bone dry weight; the “Calcium level … metaphysis part” value was 185.6 ± 1.56 mg/g bone dry weight; the “Change of calcium levels in bone tissues compared to the control group (in words)” value is listed as “did not change significantly”. In test [1] (setting [8]), the “Change of calcium levels in bone tissues (in words)” value was “did not increase significantly”; the “Calcium level … diaphysis part” value is 224.3 ± 2.90 mg/g bone dry weight; the “Calcium level … metaphysis part” value amounted to 190.2 ± 2.53 mg/g bone dry weight.
For the compound `CC1=C(/C=C/C(C)=C/C=C/C(C)=C/C=C/C=C(C)/C=C/C=C(C)/C=C/C2=C(C)C[C@@H](O)CC2(C)C)C(C)(C)CCC1` [β-cryptoxanthin], in test [2], the “Alkaline phosphatase activity in bone tissues, diaphysis part” value is 1.010 ± 0.078 μmol/min/mg protein; the “Alkaline phosphatase activity in bone tissues, metaphysis part” value is on record as 1.122 ± 0.078 μmol/min/mg protein; the “Change of alkaline phosphatase activity in bone tissues compared to the control group (in words)” value is “did not change significantly”. In test [3], the “DNA level … diaphysis part” value turned out to be 1.358 ± 0.089 mg/g bone wet weight; the “DNA level … metaphysis part” value worked out at 3.141 ± 0.078 mg/g bone wet weight; the “Change of DNA level in bone tissues compared to the control group (in words)” value is reported as “did not change significantly”. Moreover, in test [4], the “Change of calcium level in diaphysis (in words)” value is recorded as “did not induce a significant change”; the “Change of calcium level in metaphysis (in words)” value is listed as “increased significantly”; the “Calcium level … diaphysis part” value is 233.6 ± 6.8 mg/g dry mass; the “Calcium level … metaphysis part” value is on record as 190.1 ± 3.4 mg/g dry mass. Moreover, in test [5], the “Change of alkaline phosphatase activity in diaphysis and metaphysis tissues (in words)” value is “did not induce a significant change”; the “Alkaline phosphatase activity in bone tissues, diaphysis part” value is given as 1.703 ± 0.056 μmol/min/mg protein; the “Alkaline phosphatase activity in bone tissues, metaphysis part” value is recorded as 1.159 ± 0.048 μmol/min/mg protein. For the same compound, in test [6], the “Change of DNA level in diaphysis (in words)” value was “did not induce a significant change”; the “Change of DNA level in metaphysis tissues (in words)” value was “significant increase”; the “DNA level … diaphysis part” value stood at 1.980 ± 0.251 mg/g bone wet weight; the “DNA level … metaphysis part” value worked out at 4.102 ± 0.055 mg/g bone wet weight. Also, the “Effective concentration for promoting osteogenesis and increasing bone calcium level” value in test [7] (48-hour culture system of a bone tissue culture system, earlier report of the inventors) is 10^−8-10^−6 M. Also, the “Concentration at which osteogenesis is promoted and bone calcium increased” value in test [7] (48 h culture in a bone tissue culture system, patent document 10, non-patent document 2) was 10^−1 to 10^−6. For the same compound, the “Calcium level, bone calcification accelerating enzyme and DNA level in bone tissues (in words)” value in test [7] (femur diaphysis and metaphysis tissues cultured in medium containing β-cryptoxanthin, earlier report of the inventors) is reported as “significant increase”. For the same compound, in test [1] (Example 1, zinc 10^−6 M), the “Calcium level … diaphysis part” value came to 221.5 ± 3.95 mg/g bone dry weight; the “Calcium level … metaphysis part” value is listed as 189.5 ± 2.39 mg/g bone dry weight; the “Change of calcium levels in bone tissues compared to the control group (in words)” value is recorded as “did not change significantly”. For the same compound, in test [1] (setting [8]), the “Change of calcium levels in bone tissues (in words)” value is “did not increase significantly”; the “Calcium level … diaphysis part” value was 221.5 ± 3.45 mg/g bone dry weight; the “Calcium level … metaphysis part” value was determined as 189.5 ± 3.44 mg/g bone dry weight.

(Values after patent publication US20080113038A1, “Composition For Promoting Osteogenesis And Increasing Bone Mineral Content” (priority 2004, published 2008).)
